Source: patent US6355799B1, “Substituted benzene compounds, process for their preparation, and herbicidal and defoliant compositions containing them” (ISK Americas Incorporated, priority 1997, dated 2002)

What was measured:
Assay type in all cases: in vivo
[1] = system: johnsongrass (Sorghum halepense, SORHA); assay: Pre-emerge test, greenhouse herbicide activity screening; details: rating scale 0-100, 14 days after application
Summary of the method: (§1)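 Sandy loam pots; pre-emerge: sown 1 d pre-spray, surface-watered after, then bottom-watered. Post-emerge: sown 8–21 d before, 2–3 leaf stage, + 0.25% v/v NIS, bottom-watered. Acetone, 187 l/ha track spray, 15–1000 g ai/ha. 0–100 injury score, day 14.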

[2] = system: lambsquarters (Chenopodium album, CHEAL); assay: as above; details: rating scale 0-100, 14 days after application
Summary of the method: as §1

[3] = system: large crabgrass (Digitaria sanguinalis, DIGSA); assay: as above; details: rating scale 0-100, 14 days after application
Summary of the method: as §1

[4] = system: ivyleaf morningglory (Ipomoea hederacea, IPOHE); assay: as above; details: rating scale 0-100, 14 days after application
Summary of the method: as §1

[5] = system: barnyardgrass (Echinochloa crus-galli, ECHCG); assay: as above; details: rating scale 0-100, 14 days after application
Summary of the method: as §1

[6] = system: velvetleaf (Abutilon theophrasti, ABUTH); assay: as above; details: rating scale 0-100, 14 days after application
Summary of the method: as §1

[7] = system: common ragweed (Ambrosia artemisizfolia L., AMBEL); assay: as above; details: rating scale 0-100, 14 days after application
Summary of the method: as §1

[8] = system: green foxtail (Setaria viridis, SETVI); assay: as above; details: rating scale 0-100, 14 days after application
Summary of the method: as §1

[9] = system: sicklepod (Cassia obtusifolia, CASOB); assay: as above; details: rating scale 0-100, 14 days after application
Summary of the method: as §1

[10] = system: redroot pigweed (Amaranthus retroflexus, AMARE); assay: as above; details: rating scale 0-100, 14 days after application
Summary of the method: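 Compounds in acetone were track-sprayed at 15-1000 g ai/ha (187 l/ha) on sandy loam pots: pre-emerge one day after seeding, post-emerge at 2-3 leaf stage with 0.25% v/v non-ionic surfactant. Phytotoxicity was rated 14 days later on a 0 (no damage) to 100 (complete death) scale.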

[11] = system: field corn (Zea mays L., var. Dekalb 535, CORN); assay: Pre-emerge test, crop safety; details: rating scale 0-100, 14 days after application
Summary of the method: (§2)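 Visual ratings on a 0-100 scale (0 no damage, 100 all plants dead) were taken at 14 days after treatment. Rates of 15-1000 g ai/ha in acetone, 187 l/ha, were sprayed onto soil one day after planting (pre-emerge) or onto 2-3 leaf plants with 0.25% v/v surfactant (post-emerge).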

[12] = system: upland rice (Oryza sp., var. Tebonnet, RICE); assay: Pre-emerge test, crop safety; details: rating scale 0-100, 14 days after application
Summary of the method: as §2

[13] = system: johnsongrass (Sorghum halepense, SORHA); assay: Post-emerge test, greenhouse herbicide activity screening; details: rating scale 0-100 (0 no damage, 100 complete death), 14 days after application
Summary of the method: (§3)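 Compounds in acetone were track-sprayed at 15–1000 g ai/ha: pre-emergence onto soil sown the previous day, then top-watered to incorporate and later bottom-watered; post-emergence onto 2–3 leaf plants with 0.25% v/v surfactant, bottom-watered only. Ratings on a 0–100 phytotoxicity scale were taken at day 14.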

[14] = system: lambsquarters (Chenopodium album, CHEAL); assay: as above; details: rating scale 0-100 (0 no damage, 100 complete death), 14 days after application
Summary of the method: as §3

[15] = system: large crabgrass (Digitaria sanguinalis, DIGSA); assay: as above; details: rating scale 0-100 (0 no damage, 100 complete death), 14 days after application
Summary of the method: as §3

[16] = system: ivyleaf morningglory (Ipomoea hederacea, IPOHE); assay: as above; details: rating scale 0-100 (0 no damage, 100 complete death), 14 days after application
Summary of the method: as §3

[17] = system: barnyardgrass (Echinochloa crus-galli, ECHCG); assay: as above; details: rating scale 0-100 (0 no damage, 100 complete death), 14 days after application
Summary of the method: as §3

[18] = system: velvetleaf (Abutilon theophrasti, ABUTH); assay: as above; details: rating scale 0-100 (0 no damage, 100 complete death), 14 days after application
Summary of the method: as §3

[19] = system: green foxtail (Setaria viridis, SETVI); assay: as above; details: rating scale 0-100 (0 no damage, 100 complete death), 14 days after application
Summary of the method: as §3

[20] = system: sicklepod (Cassia obtusifolia, CASOB); assay: as above; details: rating scale 0-100 (0 no damage, 100 complete death), 14 days after application
Summary of the method: as §3

[21] = system: redroot pigweed (Amaranthus retroflexus, AMARE); assay: as above; details: rating scale 0-100 (0 no damage, 100 complete death), 14 days after application
Summary of the method: as §3

[22] = system: field corn (Zea mays L., var. Dekalb 535, CORN); assay: Post-emerge test, crop safety; details: rating scale 0-100 (0 no damage, 100 complete death), 14 days after application
Summary of the method: as §1

[23] = system: upland rice (Oryza sp., var. Tebonnet, RICE); assay: Post-emerge test, crop safety; details: rating scale 0-100 (0 no damage, 100 complete death), 14 days after application
Summary of the method: as §1

COC(=O)C(Cl)Cc1c(OC)c(Cl)cc(F)c1-n1c(=O)cc(C(F)(F)F)n(C)c1=O (stereo not shown) [14-3]
Pre-emerge herbicidal activity, phytotoxicity rating SORHA ([1]; 63 g ai/ha): 0
Pre-emerge herbicidal activity, phytotoxicity rating SORHA ([1]; 250 g ai/ha): 60
Pre-emerge herbicidal activity, phytotoxicity rating CHEAL ([2]; 63 g ai/ha): 100
Pre-emerge herbicidal activity, phytotoxicity rating CHEAL ([2]; 250 g ai/ha): 100
Pre-emerge herbicidal activity, phytotoxicity rating DIGSA ([3]; 63 g ai/ha): 30
Pre-emerge herbicidal activity, phytotoxicity rating DIGSA ([3]; 250 g ai/ha): 90
Pre-emerge herbicidal activity, phytotoxicity rating IPOHE ([4]; 63 g ai/ha): 0
Pre-emerge herbicidal activity, phytotoxicity rating IPOHE ([4]; 250 g ai/ha): 50
Pre-emerge herbicidal activity, phytotoxicity rating ECHCG ([5]; 63 g ai/ha): 0
Pre-emerge herbicidal activity, phytotoxicity rating ECHCG ([5]; 250 g ai/ha): 40
Pre-emerge herbicidal activity, phytotoxicity rating ABUTH ([6]; 63 g ai/ha): 100
Pre-emerge herbicidal activity, phytotoxicity rating ABUTH ([6]; 250 g ai/ha): 100
Pre-emerge herbicidal activity, phytotoxicity rating AMBEL ([7]; 63 g ai/ha): 0
Pre-emerge herbicidal activity, phytotoxicity rating AMBEL ([7]; 250 g ai/ha): 65
Pre-emerge herbicidal activity, phytotoxicity rating SETVI ([8]; 63 g ai/ha): 40
Pre-emerge herbicidal activity, phytotoxicity rating SETVI ([8]; 250 g ai/ha): 80
Pre-emerge herbicidal activity, phytotoxicity rating CASOB ([9]; 63 g ai/ha): 20
Pre-emerge herbicidal activity, phytotoxicity rating CASOB ([9]; 250 g ai/ha): 80
Pre-emerge herbicidal activity, phytotoxicity rating AMARE ([10]; 63 g ai/ha): 100
Pre-emerge herbicidal activity, phytotoxicity rating AMARE ([10]; 250 g ai/ha): 100
Pre-emerge phytotoxicity rating, crop damage CORN ([11]; 63 g ai/ha): 0
Pre-emerge phytotoxicity rating, crop damage CORN ([11]; 250 g ai/ha): 90
Pre-emerge phytotoxicity rating, crop damage RICE ([12]; 63 g ai/ha): 0
Pre-emerge phytotoxicity rating, crop damage RICE ([12]; 250 g ai/ha): 50
Post-emerge Herbicidal Activity, phytotoxicity rating SORHA ([13]; Rate 63 g ai/ha): 80
Post-emerge Herbicidal Activity, phytotoxicity rating SORHA ([13]; Rate 250 g ai/ha): 70
Post-emerge Herbicidal Activity, phytotoxicity rating CHEAL ([14]; Rate 63 g ai/ha): 90
Post-emerge Herbicidal Activity, phytotoxicity rating CHEAL ([14]; Rate 250 g ai/ha): 100
Post-emerge Herbicidal Activity, phytotoxicity rating DIGSA ([15]; Rate 63 g ai/ha): 99
Post-emerge Herbicidal Activity, phytotoxicity rating DIGSA ([15]; Rate 250 g ai/ha): 100
Post-emerge Herbicidal Activity, phytotoxicity rating IPOHE ([16]; Rate 63 g ai/ha): 50
Post-emerge Herbicidal Activity, phytotoxicity rating IPOHE ([16]; Rate 250 g ai/ha): 100
Post-emerge Herbicidal Activity, phytotoxicity rating ECHCG ([17]; Rate 63 g ai/ha): 99
Post-emerge Herbicidal Activity, phytotoxicity rating ECHCG ([17]; Rate 250 g ai/ha): 100
Post-emerge Herbicidal Activity, phytotoxicity rating ABUTH ([18]; Rate 63 g ai/ha): 100
Post-emerge Herbicidal Activity, phytotoxicity rating ABUTH ([18]; Rate 250 g ai/ha): 100
Post-emerge Herbicidal Activity, phytotoxicity rating SETVI ([19]; Rate 63 g ai/ha): 30
Post-emerge Herbicidal Activity, phytotoxicity rating SETVI ([19]; Rate 250 g ai/ha): 70
Post-emerge Herbicidal Activity, phytotoxicity rating CASOB ([20]; Rate 63 g ai/ha): 10
Post-emerge Herbicidal Activity, phytotoxicity rating CASOB ([20]; Rate 250 g ai/ha): 75
Post-emerge Herbicidal Activity, phytotoxicity rating AMARE ([21]; Rate 63 g ai/ha): 95
Post-emerge Herbicidal Activity, phytotoxicity rating AMARE ([21]; Rate 250 g ai/ha): 100
Post-emerge phytotoxicity rating CORN (crop damage) ([22]; Rate 63 g ai/ha): 100
Post-emerge phytotoxicity rating CORN (crop damage) ([22]; Rate 250 g ai/ha): 100
Post-emerge phytotoxicity rating RICE (crop damage) ([23]; Rate 63 g ai/ha): 5
Post-emerge phytotoxicity rating RICE (crop damage) ([23]; Rate 250 g ai/ha): 80
